Data as given in PubChem BioAssay (NCI).
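Compound exposure: 48 hours, 5 concentrations, 96-well plates. The concentration for 50% growth inhibition is given as GI50. TGI: concentration producing complete growth inhibition.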

How the values were obtained:
Experiment in all cases: NCI-60 cell line screen, 48 h
HCT-15 colon = test system: HCT-15 colon
CCRF-CEM leukemia = test system: CCRF-CEM leukemia
IGROV1 ovarian = test system: IGROV1 ovarian
OVCAR-5 ovarian = test system: OVCAR-5 ovarian
SW-620 colon = test system: SW-620 colon
A549 NSCLC = test system: A549 NSCLC
SK-OV-3 ovarian = test system: SK-OV-3 ovarian
DU-145 prostate = test system: DU-145 prostate
MDA-MB-231 breast = test system: MDA-MB-231 breast
HOP-92 NSCLC = test system: HOP-92 NSCLC
UACC-62 melanoma = test system: UACC-62 melanoma
M14 melanoma = test system: M14 melanoma
SNB-19 CNS = test system: SNB-19 CNS
786-0 renal = test system: 786-0 renal
OVCAR-3 ovarian = test system: OVCAR-3 ovarian
HS 578T breast = test system: HS 578T breast
ACHN renal = test system: ACHN renal
K-562 leukemia = test system: K-562 leukemia
CAKI-1 renal = test system: CAKI-1 renal
SK-MEL-2 melanoma = test system: SK-MEL-2 melanoma
SN12C renal = test system: SN12C renal
KM12 colon = test system: KM12 colon
TK-10 renal = test system: TK-10 renal
OVCAR-4 ovarian = test system: OVCAR-4 ovarian
NCI-H522 lung = test system: NCI-H522 lung
UO-31 renal = test system: UO-31 renal
BT-549 breast = test system: BT-549 breast
SF-539 CNS = test system: SF-539 CNS
MOLT-4 leukemia = test system: MOLT-4 leukemia
OVCAR-8 ovarian = test system: OVCAR-8 ovarian
SF-268 CNS = test system: SF-268 CNS
NCI/ADR-RES ovarian = test system: NCI/ADR-RES ovarian
U251 CNS = test system: U251 CNS
EKVX NSCLC = test system: EKVX NSCLC
NCI-H460 lung = test system: NCI-H460 lung
RPMI-8226 leukemia = test system: RPMI-8226 leukemia
NCI-H23 lung = test system: NCI-H23 lung
UACC-257 melanoma = test system: UACC-257 melanoma
T-47D breast = test system: T-47D breast
MDA-MB-435 = test system: MDA-MB-435
HCC-2998 colon = test system: HCC-2998 colon
SK-MEL-5 melanoma = test system: SK-MEL-5 melanoma
HT29 colon = test system: HT29 colon
MALME-3M melanoma = test system: MALME-3M melanoma
HCT-116 colon = test system: HCT-116 colon
A498 renal = test system: A498 renal
LOX IMVI melanoma = test system: LOX IMVI melanoma
SR leukemia = test system: SR leukemia
PC-3 prostate = test system: PC-3 prostate
MCF7 breast = test system: MCF7 breast
SF-295 CNS = test system: SF-295 CNS
HL-60(TB) leukemia = test system: HL-60(TB) leukemia
NCI-H226 lung = test system: NCI-H226 lung
SNB-75 CNS = test system: SNB-75 CNS
RXF 393 renal = test system: RXF 393 renal
HOP-62 NSCLC = test system: HOP-62 NSCLC
SK-MEL-28 melanoma = test system: SK-MEL-28 melanoma
COLO 205 colon = test system: COLO 205 colon

With CC1=C(SCCC(=O)OCC(=O)NCCC[Te]c2ccccc2)C(=O)c2ccccc2C1=O the GI50 (HCT-15 colon) was 2.73 µM, the TGI (HCT-15 colon) was 11.4 µM and the GI50 (CCRF-CEM leukemia) was 2.1 µM. It also gave a TGI (CCRF-CEM leukemia) of 19.6 µM, a GI50 (IGROV1 ovarian) of 1.92 µM and a TGI (IGROV1 ovarian) of 5.58 µM. For the same compound, the GI50 (OVCAR-5 ovarian) was 2.86 µM, the TGI (OVCAR-5 ovarian) was 7.68 µM and the GI50 (SW-620 colon) was 3.79 µM. For the same compound, the TGI (SW-620 colon) was 15.6 µM, the GI50 (A549 NSCLC) was 0.793 µM and the TGI (A549 NSCLC) was 2.95 µM. For the same compound, the GI50 (SK-OV-3 ovarian) was 1.9 µM, the TGI (SK-OV-3 ovarian) was 4.62 µM and the GI50 (DU-145 prostate) was 2.95 µM. It also gave a TGI (DU-145 prostate) of 8.05 µM, a GI50 (MDA-MB-231 breast) of 1.8 µM and a TGI (MDA-MB-231 breast) of 4.34 µM. It also gave a GI50 (HOP-92 NSCLC) of 1.8 µM, a TGI (HOP-92 NSCLC) of 5.01 µM and a GI50 (UACC-62 melanoma) of 1.94 µM. The TGI (UACC-62 melanoma) was 4.83 µM, the GI50 (M14 melanoma) was 2.11 µM and the TGI (M14 melanoma) was 5.27 µM. For the same compound, the GI50 (SNB-19 CNS) was 2.78 µM, the TGI (SNB-19 CNS) was 10.4 µM and the GI50 (786-0 renal) was 2.64 µM. The TGI (786-0 renal) was 7.33 µM, the GI50 (OVCAR-3 ovarian) was 2.23 µM and the TGI (OVCAR-3 ovarian) was 4.81 µM. For the same compound, the GI50 (HS 578T breast) was 2.97 µM, the TGI (HS 578T breast) was greater than 33.7 µM and the GI50 (ACHN renal) was 2.76 µM. It also gave a TGI (ACHN renal) of 10.2 µM, a GI50 (K-562 leukemia) of 3.3 µM and a TGI (K-562 leukemia) of 19.4 µM. It also gave a GI50 (CAKI-1 renal) of 1.86 µM, a TGI (CAKI-1 renal) of 6.87 µM and a GI50 (SK-MEL-2 melanoma) of 2.75 µM. The TGI (SK-MEL-2 melanoma) was 7.24 µM, the GI50 (SN12C renal) was 2.21 µM and the TGI (SN12C renal) was 7.99 µM. For the same compound, the GI50 (KM12 colon) was 2.96 µM, the TGI (KM12 colon) was 10.1 µM and the GI50 (TK-10 renal) was 3.87 µM. The TGI (TK-10 renal) was 12.4 µM, the GI50 (OVCAR-4 ovarian) was 2.21 µM and the TGI (OVCAR-4 ovarian) was 7.34 µM. The GI50 (NCI-H522 lung) was 2.71 µM, the TGI (NCI-H522 lung) was 10.8 µM and the GI50 (UO-31 renal) was 1.74 µM. For the same compound, the TGI (UO-31 renal) was 8.66 µM, the GI50 (BT-549 breast) was 1.7 µM and the TGI (BT-549 breast) was 3.95 µM. It also gave a GI50 (SF-539 CNS) of 2.29 µM, a TGI (SF-539 CNS) of 6.71 µM and a GI50 (MOLT-4 leukemia) of 3.12 µM. It also gave a TGI (MOLT-4 leukemia) of 12.2 µM, a GI50 (OVCAR-8 ovarian) of 2.74 µM and a TGI (OVCAR-8 ovarian) of 11 µM. For the same compound, the GI50 (SF-268 CNS) was 2.61 µM, the TGI (SF-268 CNS) was 9.42 µM and the GI50 (NCI/ADR-RES ovarian) was 2.22 µM. For the same compound, the TGI (NCI/ADR-RES ovarian) was 7.32 µM, the GI50 (U251 CNS) was 2.39 µM and the TGI (U251 CNS) was 8.06 µM. The GI50 (EKVX NSCLC) was 0.443 µM, the TGI (EKVX NSCLC) was 5.11 µM and the GI50 (NCI-H460 lung) was 0.79 µM. For the same compound, the TGI (NCI-H460 lung) was 3 µM, the GI50 (RPMI-8226 leukemia) was 2.64 µM and the TGI (RPMI-8226 leukemia) was 9.84 µM. The GI50 (NCI-H23 lung) was 1.84 µM, the TGI (NCI-H23 lung) was 5.25 µM and the GI50 (UACC-257 melanoma) was 2.88 µM. The TGI (UACC-257 melanoma) was 8.23 µM, the GI50 (T-47D breast) was 2.2 µM and the TGI (T-47D breast) was 6.21 µM. It also gave a GI50 (MDA-MB-435) of 3.07 µM, a TGI (MDA-MB-435) of 10.4 µM and a GI50 (HCC-2998 colon) of 1.78 µM. It also gave a TGI (HCC-2998 colon) of 4.58 µM, a GI50 (SK-MEL-5 melanoma) of 1.52 µM and a TGI (SK-MEL-5 melanoma) of 2.88 µM. For the same compound, the GI50 (HT29 colon) was 3.29 µM, the TGI (HT29 colon) was 11.1 µM and the GI50 (MALME-3M melanoma) was 2.22 µM. It also gave a TGI (MALME-3M melanoma) of 5.56 µM, a GI50 (HCT-116 colon) of 1.63 µM and a TGI (HCT-116 colon) of 4.12 µM. The GI50 (A498 renal) was 1.9 µM, the TGI (A498 renal) was 6.16 µM and the GI50 (LOX IMVI melanoma) was 1.72 µM. The TGI (LOX IMVI melanoma) was 4.07 µM, the GI50 (SR leukemia) was 1.97 µM and the TGI (SR leukemia) was 17.4 µM. For the same compound, the GI50 (PC-3 prostate) was 1.96 µM, the TGI (PC-3 prostate) was 9.76 µM and the GI50 (MCF7 breast) was 2.5 µM. It also gave a TGI (MCF7 breast) of 10.7 µM, a GI50 (SF-295 CNS) of 1.11 µM and a TGI (SF-295 CNS) of 4.24 µM. The GI50 (HL-60(TB) leukemia) was 2.58 µM, the TGI (HL-60(TB) leukemia) was 7.07 µM and the GI50 (NCI-H226 lung) was 1.64 µM. For the same compound, the TGI (NCI-H226 lung) was 3.64 µM, the GI50 (SNB-75 CNS) was 1.37 µM and the TGI (SNB-75 CNS) was 5.42 µM. It also gave a GI50 (RXF 393 renal) of 1.78 µM, a TGI (RXF 393 renal) of 5.16 µM and a GI50 (HOP-62 NSCLC) of 2.04 µM. For the same compound, the TGI (HOP-62 NSCLC) was 5.19 µM, the GI50 (SK-MEL-28 melanoma) was 2.41 µM and the TGI (SK-MEL-28 melanoma) was 5.78 µM. The GI50 (COLO 205 colon) was 1.97 µM and the TGI (COLO 205 colon) was 3.88 µM.
